# Measurements as given in patent publication US20020173502A1, “Pharmaceutically active compounds” (priority 2001, published 2002).
# Assays:
# cGMP PDE5 = molecular target: T1, cGMP PDE5 (Homo sapiens, UniProt O76074); assay: Phosphodiesterase (PDE) inhibitory activity, in vitro IC50; format: biochemical; conditions: read-out: IC50 as an inhibitor of cGMP PDE5
# T1 construct: were obtained from human corpus cavernosum or human platelets; from tissue; host or cells: human corpus cavernosum or human platelets
# Procedure: The compounds of the present invention are cGMP PDE5 inhibitors. In vitro PDE inhibitory activities against cyclic guanosine 3′,5′-monophosphate (CGMP) and cyclic adenosine 3′,5′-monophosphate (cAMP) phosphodiesterases were determined by measurement of their IC50 values (the concentration of compound required for 50% inhibition of enzyme activity).
# The required PDE enzymes were isolated from a variety of sources, including human corpus cavernosum, human and rabbit platelets, human cardiac ventricle, human skeletal muscle and human and canine retina, essentially by the method of W. J. Thompson and M. M. Appleman (Biochem., 1971, 10, 311). In particular, the cGMP-specific PDE (PDE5) and the cGMP-inhibited cAMP PDE (PDE3) were obtained from human corpus cavernosum or human platelets; the cGMP-stimulated PDE (PDE2) was obtained from human corpus cavernosum and human platelets; the calcium/calmodulin (Ca/CAM)-dependent PDE (PDE1) from human cardiac ventricle; the cAMP-specific PDE (PDE4) from human skeletal muscle and human recombinant, expressed in SF9 cells; and the photoreceptor PDE (PDE6) from human or canine retina. Phosphodiesterases 7-11 were generated from full length human recombinant clones transfected into SF9 cells. […]
# [1] = Hepatocyte incubation, metabolism followed by turbulent flow LC-MS-MS; format: in vitro ADME, human, dog; conditions: test compound 2 μM, sampled 0-180 minutes; transitions 439 to 84 (ketone) and 441 to 84 (alcohol)
# Procedure: Hepatocyte incubations were used to determine the metabolism of both compound 1A according to the present invention and also the compound of Preparation 1. In such testing a marker compound was routinely included to ensure reproducible, active preparations were obtained.
# Standard methodologies relating to hepatocyte testing can be found in: Carlille, D, Zomorodi, K, Houston, B; Drug Met. Dispos. 1997, 25(8), pp903-911, “Scaling factors to relate drug metabolic clearance in hepatic microsomes isolated hepatocytes, and the intact liver”.
# Marker compound: 0.3 mM Propranolol in 100% DMSO.
# Test materials (e.g. compound 1A) 1 mg/ml stocks or 3 mM in 100% DMSO.
# Human hepatocytes used at a concentration of 2×10^6 cells/ml (per compound tested).
# Dog hepatocytes used at a concentration of 1×10^6 cells/ml (per compound tested).
# William's E buffer (1 pot of William's E powder from Sigma, 900 ml distilled water, 2.2 g sodium bicarbonate, 100 ml Foetal Bovine Serum) STOP solution (Midazolam internal standard plus acetonitrile: 600 μl of 10 μg/ml midazolam +30 ml acetonitrile). […]
# Hepatocyte viability was determined using the Trypan Blue Exclusion method by gentle mixing of 350 μl KH buffer+100 μI Trypan Blue solution+50 μl cell suspension in an eppendorf tube. The cells were then counted using a haemocytometer. […] The number of viable (colourless) cells within 10 squares was recorded. […]
# [2] = In vivo interconversion of compound 1A and the compound of Preparation 1; conditions: no species or method printed
SMILES,IC50 (cGMP PDE5) [nM],mass transition of the starting compound during hepatocyte incubation; product transition then appears [1],conversion in vivo (pro-drug / metabolite relation) [2]
"CCCCOc1ncc(C(C)O)cc1-c1nc2c(CC)n(C3CN(CC)C3)nc2c(=O)[nH]1 (centres unmarked) [Example 1A, 5-[2-Butoxy-5-(1-hydroxyethyl)-3-pyridinyl]-3-ethyl-2-(1-ethyl-3-azetidinyl)-2,6-dihydro-7H-pyrazolo[4,3-d]pyrimidin-7-one]",825,reduces to levels below the detection limit of the equipment,converted in vivo to provide the compound of Preparation 1
"CCCCOc1ncc(C(C)=O)cc1-c1nc2c(CC)n(C3CN(CC)C3)nc2c(=O)[nH]1 [Preparation 1, 5-(5-acetyl-2-butoxy-3-pyridinyl)-3-ethyl-2-(1-ethyl-3-azetidinyl)-2,6-dihydro-7H-pyrazolo[4,3-d]pyrimidin-7-one, reference compound]",–,reduces to levels below the detection limit of the equipment,Compound 1A is a metabolite of the compound of Preparation 1
